Source: patent US8569344B2, “N-piperidinyl acetamide derivatives as calcium channel blockers” (Zalicus Pharmaceuticals Ltd., priority 2008, dated 2013)
Like-named read-outs stand apart in the source and are kept apart here.

Key:
[1] = test system: absence seizures in GAERS rats; experiment: GAERS (Genetic Absence Epilepsy Rats from Strasbourg) epilepsy model, EEG spike and wave discharges; type: in vivo, rat; details: for Percent Recording Time in Seizure Activity, Baseline: 60 minutes pre-injection EEG recording; for Percent Recording Time in Seizure Activity, Post-injection / percentage of time in seizure activity compared to both baseline and vehicle: IP 30 mg/kg; for Percent Recording Time in Seizure Activity, Post-injection: 120 minutes post-injection EEG recording starting 15 minutes post-drug
Excerpt: The GAERS (Genetic Absence Epilepsy Rats from Strasbourg) is noted for its long and frequently recurring absence seizure episodes. […] Eight female GAERS rats, bred in the Ludwig Institute for Cancer Research, were used for this study. Rats weighed between 180 and 250 g and aged between 18 and 26 weeks at the start of the experiment.
Electrodes were made in our laboratory by soldering together gold-plated sockets (220-S02 Ginder Scientific, VA, Canada), stainless steel teflon coated wire (SDR clinical technology, NSW, Australia) and a small stainless steel screw (1.4×3 mm, Mr. Specks, Australia). Animals were anaethetised with inhalation of Isoflurane in equal parts of medical air and oxygen (5% induction, 2.5-1.5% maintenance) or alternatively by intraperitoneal injection with xylazine (10 mg/kg) and ketamine (75 mg/kg). The animals were fixated in a stereotaxic frame by means of ear bars. A midline incision on the scalp was made, skin and connective tissue was scraped and pushed laterally to expose underlying skull. 6 holes were drilled bilaterally, 2 in the frontal bone and 4 in the parietal bone, approximately 2 mm anterior to bregma, and 4 and 10 mm posterior to bregma. 6 electrodes were implanted in the holes, and gold-plated sockets were clipped into 9-pin ABS plug (GS09PLG-220, Ginder Scientific, Canada). 2 two side-anchoring screws were placed laterally into skull to improve strength of cap fixation, then caps were held in place with dental cement.
Post-operatively, animals were given the analgesic Rimadyl (4 mg/kg), placed in their cages on a heat mat, and observed until recovery. Rats were caged separately throughout the study, weighed and health-checked daily, and were allowed 7 days to recover prior to commencement of the experimental procedures. Rats were allowed free access to rodent chow (brand, WA stock feeders) and water under 12:12 light dark conditions in the Biological Research Facility of the Department of Medicine (RMH).
Prior to first drug treatment, rats were tested for absence-type seizures, which are accompanied by generalised spike and wave discharges (SWD) on an EEG recording. Testing, and all further experiments were performed in a quiet, well lit room with rats in their home cages. Rats were connected via 6-channel wire cables, which were cut and soldered to 6 gold-plated pins inserted into a 9 pin socket. Cables were connected to a computer running Compumedics™ EEG acquisition software (Melbourne, Australia). […] On week 1, day 1 after the acclimation period following surgical implantation of subdural electrodes, 4 animals (#1-4) were habituated with the cable connected for 15 minutes, then had their SWDs recorded for 60 minutes as baseline. Immediately following baseline, rats were given one of the test, reference or control articles according to the treatment schedule, and target period was recorded from 15 after injection for 120 minutes. Animals were monitored throughout the experiment, and were kept quietly wakeful during baseline and target periods
The seizure expression for the 60 minutes pre-injection and 120 minutes post-injection EEG recording (starting 15 minutes post-drug administration) was quantified by marking the start and finish of the burst of SWDs. This was done with the assistance of SWCFinder® software which has been custom designed to quantitate GAERS seizures, and researchers were blinded to the nature of the drug administered, whereby the analysis was performed blinded. Standard criteria for GAERS seizures is an SWD burst of amplitude of more than three times baseline, a frequency of 7 to 12 Hz, and a duration of longer than 0.5 s. From this, the total percent time spent in seizure over the 120 minutes post-injection EEG recording was determined (percentage time in seizure) as the primary outcome variable.

[2] = biological target: hERG K+ channel (Homo sapiens, UniProt Q12809); experiment: hERG K+ Channel Block; type: cell-based
[3] = biological target: T1, human α1H T-type channels (Homo sapiens, UniProt O95180); experiment: T-type calcium channel block, whole cell patch clamp in HEK cells (α1H); type: cell-based; details: HEK cells, patch clamp, mainly non-inactivated protocol; values above 10 μM shown as 10 μM; read-out: T-type Calcium Channel Block α1H IC50
T1 construct: expressed in transfected cells; host or cells: HEK 293

[4] = biological target: T2, human α1G T-type channels (Homo sapiens, UniProt O43497); experiment: T-type calcium channel block, whole cell patch clamp in HEK cells (α1G); type: cell-based; details: HEK cells, patch clamp, mainly non-inactivated protocol; values above 10 μM shown as 10 μM, below 0.30 μM shown as 0.30 μM; read-out: T-type Calcium Channel Block α1G IC50
T2 construct: expressed in transfected cells; host or cells: HEK 293

[5] = test system: spinal nerve ligation model of neuropathic pain; details: rats; Dogrul et al., Pain (2003); cited from earlier work

T2 sequence (O43497 whole entry): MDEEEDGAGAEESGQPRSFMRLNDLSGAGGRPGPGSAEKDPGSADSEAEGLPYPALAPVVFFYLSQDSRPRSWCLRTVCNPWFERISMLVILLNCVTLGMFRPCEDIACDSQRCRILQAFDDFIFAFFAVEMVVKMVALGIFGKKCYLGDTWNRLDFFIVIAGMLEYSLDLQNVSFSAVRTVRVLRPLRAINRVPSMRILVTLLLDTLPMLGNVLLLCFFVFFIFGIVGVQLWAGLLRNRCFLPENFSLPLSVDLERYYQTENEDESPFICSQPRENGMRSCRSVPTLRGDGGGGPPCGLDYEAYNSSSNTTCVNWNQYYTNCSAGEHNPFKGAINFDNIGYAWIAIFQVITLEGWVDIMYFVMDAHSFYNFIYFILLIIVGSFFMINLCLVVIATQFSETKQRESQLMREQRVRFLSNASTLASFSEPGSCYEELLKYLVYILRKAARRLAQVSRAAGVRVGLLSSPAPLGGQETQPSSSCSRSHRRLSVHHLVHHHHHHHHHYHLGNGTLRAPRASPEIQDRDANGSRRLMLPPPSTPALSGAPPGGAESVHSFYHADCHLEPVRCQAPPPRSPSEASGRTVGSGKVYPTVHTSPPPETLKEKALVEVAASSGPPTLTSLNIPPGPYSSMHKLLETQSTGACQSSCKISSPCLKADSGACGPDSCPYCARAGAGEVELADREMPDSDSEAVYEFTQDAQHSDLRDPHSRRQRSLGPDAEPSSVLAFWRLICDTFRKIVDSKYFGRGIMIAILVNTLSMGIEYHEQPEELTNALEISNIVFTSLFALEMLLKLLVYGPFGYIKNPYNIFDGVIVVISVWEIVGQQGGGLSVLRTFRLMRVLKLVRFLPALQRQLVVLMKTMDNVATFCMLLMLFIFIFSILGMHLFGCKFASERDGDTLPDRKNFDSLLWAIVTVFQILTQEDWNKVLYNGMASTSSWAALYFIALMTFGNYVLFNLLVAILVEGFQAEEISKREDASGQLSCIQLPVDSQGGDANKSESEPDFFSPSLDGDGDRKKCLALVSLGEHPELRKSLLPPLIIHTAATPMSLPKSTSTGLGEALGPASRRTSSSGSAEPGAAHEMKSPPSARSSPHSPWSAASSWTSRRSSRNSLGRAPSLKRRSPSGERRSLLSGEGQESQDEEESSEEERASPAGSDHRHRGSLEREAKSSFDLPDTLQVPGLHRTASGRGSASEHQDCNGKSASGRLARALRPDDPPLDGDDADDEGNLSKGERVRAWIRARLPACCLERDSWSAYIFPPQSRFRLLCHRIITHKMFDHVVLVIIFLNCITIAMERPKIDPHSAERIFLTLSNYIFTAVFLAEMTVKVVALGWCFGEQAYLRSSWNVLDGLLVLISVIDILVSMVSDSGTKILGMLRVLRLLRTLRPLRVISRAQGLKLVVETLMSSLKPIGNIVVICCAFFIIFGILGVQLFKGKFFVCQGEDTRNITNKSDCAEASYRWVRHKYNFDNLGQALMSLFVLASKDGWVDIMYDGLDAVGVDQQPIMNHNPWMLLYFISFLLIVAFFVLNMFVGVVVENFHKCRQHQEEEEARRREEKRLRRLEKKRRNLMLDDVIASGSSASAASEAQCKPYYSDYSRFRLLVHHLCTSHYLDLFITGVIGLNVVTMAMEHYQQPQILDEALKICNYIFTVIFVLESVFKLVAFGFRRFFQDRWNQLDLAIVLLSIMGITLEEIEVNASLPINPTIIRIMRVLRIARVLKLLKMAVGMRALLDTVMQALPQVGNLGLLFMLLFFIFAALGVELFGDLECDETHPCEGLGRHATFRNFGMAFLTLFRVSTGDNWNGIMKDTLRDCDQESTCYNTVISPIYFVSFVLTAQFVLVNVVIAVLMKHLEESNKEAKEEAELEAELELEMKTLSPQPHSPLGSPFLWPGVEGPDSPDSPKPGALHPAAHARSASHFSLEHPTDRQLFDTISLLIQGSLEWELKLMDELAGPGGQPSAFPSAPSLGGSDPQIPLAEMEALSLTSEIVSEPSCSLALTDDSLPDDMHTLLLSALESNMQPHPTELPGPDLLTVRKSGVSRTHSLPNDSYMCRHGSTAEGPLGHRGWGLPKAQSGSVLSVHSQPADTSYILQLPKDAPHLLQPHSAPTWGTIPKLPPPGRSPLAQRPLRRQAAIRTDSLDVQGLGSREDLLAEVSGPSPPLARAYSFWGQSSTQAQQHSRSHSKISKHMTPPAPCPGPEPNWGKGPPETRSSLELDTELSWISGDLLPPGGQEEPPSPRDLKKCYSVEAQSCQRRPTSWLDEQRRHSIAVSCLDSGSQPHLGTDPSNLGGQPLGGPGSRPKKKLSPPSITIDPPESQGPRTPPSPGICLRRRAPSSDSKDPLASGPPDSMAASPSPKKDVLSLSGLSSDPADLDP
Sequence of hERG K+ channel (Q12809 whole entry): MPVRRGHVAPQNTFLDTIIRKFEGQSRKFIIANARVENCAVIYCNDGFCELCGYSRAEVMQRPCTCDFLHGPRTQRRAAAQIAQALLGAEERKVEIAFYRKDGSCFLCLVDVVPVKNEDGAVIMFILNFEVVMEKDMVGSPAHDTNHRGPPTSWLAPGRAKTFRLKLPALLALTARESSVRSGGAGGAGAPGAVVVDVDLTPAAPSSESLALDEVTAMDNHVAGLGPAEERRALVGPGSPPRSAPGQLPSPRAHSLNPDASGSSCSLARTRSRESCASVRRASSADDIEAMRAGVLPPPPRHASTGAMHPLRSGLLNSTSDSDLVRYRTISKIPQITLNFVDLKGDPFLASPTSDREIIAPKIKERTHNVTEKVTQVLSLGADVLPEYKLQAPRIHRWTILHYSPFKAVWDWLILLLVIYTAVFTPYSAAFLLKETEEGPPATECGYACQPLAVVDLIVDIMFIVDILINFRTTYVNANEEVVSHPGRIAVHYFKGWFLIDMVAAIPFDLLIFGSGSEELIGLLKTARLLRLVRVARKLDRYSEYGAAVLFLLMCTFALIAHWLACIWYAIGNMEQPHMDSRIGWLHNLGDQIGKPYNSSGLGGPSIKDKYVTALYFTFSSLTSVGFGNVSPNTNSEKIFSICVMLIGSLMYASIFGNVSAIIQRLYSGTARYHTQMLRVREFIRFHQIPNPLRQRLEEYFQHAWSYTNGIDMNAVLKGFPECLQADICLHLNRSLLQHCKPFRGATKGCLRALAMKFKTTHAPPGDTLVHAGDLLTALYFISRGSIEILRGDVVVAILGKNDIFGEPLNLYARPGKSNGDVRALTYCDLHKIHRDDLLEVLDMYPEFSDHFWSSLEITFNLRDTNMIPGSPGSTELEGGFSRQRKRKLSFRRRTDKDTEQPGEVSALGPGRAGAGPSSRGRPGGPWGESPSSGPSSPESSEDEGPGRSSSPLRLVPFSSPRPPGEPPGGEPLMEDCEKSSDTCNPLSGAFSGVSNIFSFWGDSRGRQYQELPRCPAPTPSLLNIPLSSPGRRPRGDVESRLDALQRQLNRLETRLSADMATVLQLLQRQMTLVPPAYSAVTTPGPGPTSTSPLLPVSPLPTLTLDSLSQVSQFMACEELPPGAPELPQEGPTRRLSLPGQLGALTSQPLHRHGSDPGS

Row | SMILES | IC50 [3] | IC50 [4] | Percent Recording Time in Seizure Activity, Baseline [1] | Percent Recording Time in Seizure Activity, Post-injection [1] | IC50 ([2]; human) | percentage of time in seizure activity compared to both baseline and vehicle [1] | IC50 [2] | anti-hyperalgesic activity in the spinal nerve ligation model of neuropathic pain [5]
1 | CC(C)(C)NC(=O)CN1CCC(CNC(=O)c2cccc(Cl)c2)CC1 [Compound 364, N-((1-(2-(tert-buylamino)-2-oxoethyl)piperidin-4-yl)methyl)-3-chlorobenzamide] | 230 nM | < 300 nM | 12.12 ± 1.82% | 0.45 ± 0.20% | ≥ 8300 nM |  |  | 
2 | COc1cc(OC)cc(C(=O)NCC2CCN(CC(=O)NC(C)(C)C)CC2)c1 [Compound 368, N-((1-(2-(tert-butylamino)-2-oxoethyl)piperidin-4-yl)methyl)-3,5-dimethoxybenzamide] | 170 nM | < 300 nM |  |  | ≥ 8300 nM | significant decrease |  | 
3 | CC(C)(C)S(=O)(=O)NCCN1CCC(CNC(=O)c2cccc(OC(F)(F)F)c2)CC1 [Compound 574, N-((1-(2-(1,1-dimetylethylsulfonamido)ethyl)piperidin-4-yl)methyl)-3-(trifluoromethoxy)benzamide] | 200 nM | < 300 nM |  |  |  |  | 4100 nM | 
4 | COc1cc(F)cc(C(=O)NCC2CCN(CCNS(=O)(=O)C(C)(C)C)CC2)c1 [Compound 577, N-((1-(2-(1,1-dimethylethylsulfonamido)ethyl)piperidin-4-yl)methyl)-3-fluoro-5-methoxybenzamide] | 450 nM | < 300 nM |  |  | ≥ 17000 nM |  |  | 
5 | CC1(C)COCCN1C(=O)CN1CCC(CNC(=O)c2cc(C(F)(F)F)cc(C(F)(F)F)c2)CC1 [Compound 578, N-((1-(2-(3,3-dimethylmorpholino)-2-oxoethyl)piperidin-4-yl)methyl)-3,5-bis(trifluoromethyl)benzamide] | 160 nM | < 300 nM |  |  |  |  | 5400 nM | 
6 | COc1cc(Cl)cc(C(=O)NCC2CCN(CCNC(=O)C3(C(F)(F)F)CC3)CC2)c1 [Compound 590, 3-chloro-5-methoxy-N-((1-(2-(1-(trifluoromethyl)cyclopropanecarbox-amido)ethyl)piperidin-4-yl)methyl) benzamide] | 70 nM | < 300 nM |  |  |  |  | 2200 nM | 
7 | CCC1(C)CC(=O)NC1=O (stereo not shown) [ethosuximide] |  |  |  |  |  |  |  | anti-hyperalgesic activity
8 | COCC(=O)O[C@]1(CCN(C)CCCc2nc3ccccc3[nH]2)CCc2cc(F)ccc2[C@@H]1C(C)C [mibefradil] |  |  |  |  |  |  |  | anti-hyperalgesic activity

The next lines start with results.

Row | IC50 [3] | IC50 [4] | SMILES | Percent Recording Time in Seizure Activity, Baseline [1] | Percent Recording Time in Seizure Activity, Post-injection [1] | IC50 ([2]; human) | percentage of time in seizure activity compared to both baseline and vehicle [1] | IC50 [2] | anti-hyperalgesic activity in the spinal nerve ligation model of neuropathic pain [5]
9 | 560 nM | 800 nM | CC(C)(C)NC(=O)CN1CCC(CNC(=O)c2cc(F)cc(F)c2)CC1 [Compound 365, N-((1-(2-(tert-butylamino)-2-oxoethyl)piperidin-4-yl)methyl)-3,5-difluorobenzamide] |  |  |  | significant decrease |  | 
10 | 50 nM | < 300 nM | CC(C)(C)NC(=O)CN1CCC(CNC(=O)c2cc(F)cc(Cl)c2)CC1 [Compound 367, N-((1-(2-(tert-butylamino)-2-oxoethyl)piperidin-4-yl)methyl)-3-chloro-5-fluorobenzamide] | 9.99 ± 2.07% | 0.87 ± 0.44% | ≥ 8300 nM |  |  | 
11 | 410 nM | 580 nM | CN(C(=O)CN1CCC(CNC(=O)c2cccc(Cl)c2)CC1)C(C)(C)C [Compound 543, N-((1-(2-(tert-butyl(methyl)amino)-2-oxoethyl)piperidin-4-yl)methyl)-3-chlorobenzamide] |  |  |  |  | 5200 nM | 
12 | 170 nM | < 300 nM | CN(C(=O)CN1CCC(CNC(=O)c2cc(F)cc(Cl)c2)CC1)C(C)(C)C [Compound 544, N-((1-(2-(tert-butyl(methyl)amino)-2-oxoethyl)piperidin-4-yl)methyl)-3-chloro-5-fluorobenzamide] |  |  |  |  | 6000 nM | 
13 | 210 nM | 470 nM | CN(C(=O)CN1CCC(CNC(=O)c2cccc(OC(F)(F)F)c2)CC1)C(C)(C)C [Compound 545, N-((1-(2-(tert-butyl(methyl)amino)-2-oxoethyl)piperidin-4-yl)methyl)-3-(trifluoromethoxy)benzamide] |  |  |  |  | 6600 nM | 
14 | 60 nM | < 300 nM | CN(C(=O)CN1CCC(CNC(=O)c2cc(Cl)cc(Cl)c2)CC1)C(C)(C)C [Compound 552, N-((1-(2-(tert-butyl(methyl)amino)-2-oxoethyl)piperidin-4-yl)methyl)-3,5-dichlorobenzamide] |  |  |  |  | 1800 nM | 
15 | 350 nM | < 300 nM | COCC(C)(C)NC(=O)CN1CCC(CNC(=O)c2cc(F)cc(OC)c2)CC1 [Compound 567, 3-fluoro-5-methoxy-N-((1-(2-(1-methoxy-2-methylpropan-2-ylamino)-2-oxoethyl)piperidin-4-yl)methyl)benzamide] |  |  | ≥ 17000 nM |  |  | 
16 | 220 nM | < 300 nM | CN(C(=O)CN1CCC(CNC(=O)c2cccc(Cl)c2)CC1)C(C)(C)C(F)(F)F [Compound 580, 3-chloro-N-((1-(2-(methyl(1,1,1-trifluoro-2-methylpropan-2-yl)amino)-2-oxoethyl)piperidin-4-yl)methyl)benzamide] |  |  | ≥ 8300 nM |  |  | 
17 | 210 nM | < 300 nM | COc1cc(F)cc(C(=O)NCC2CCN(CC(=O)N(C)C(C)(C)C(F)(F)F)CC2)c1 [Compound 581, 3-fluoro-5-methoxy-N-((1-(2-(methyl(1,1,1-trifluoro-2-methyl-propan-2-yl)amino)-2-oxoethyl)piperidin-4-yl)methyl)benzamide] |  |  |  |  | 11000 nM | 
18 | 150 nM | < 300 nM | CN(C(=O)CN1CCC(CNC(=O)c2cc(F)cc(Cl)c2)CC1)C1(C)CCC1 [Compound 583, 3-chloro-5-fluoro-N-((1-(2-(methyl(1-methylcyclobutyl)amino)-2-oxoethyl)piperidin-4-yl)methyl)benzamide] |  |  |  |  | 1700 nM | 
